Measurements reported in BindingDB's records for doi:10.1016/j.bmcl.2008.09.059 (Seoul National University, 2008).

Molecular target: Isocitrate lyase (Candida albicans, UniProt Q9P8Q7)
Test: Inhibition of candida albicans isocitrate lyase

Chain of Isocitrate lyase (Q9P8Q7 whole entry): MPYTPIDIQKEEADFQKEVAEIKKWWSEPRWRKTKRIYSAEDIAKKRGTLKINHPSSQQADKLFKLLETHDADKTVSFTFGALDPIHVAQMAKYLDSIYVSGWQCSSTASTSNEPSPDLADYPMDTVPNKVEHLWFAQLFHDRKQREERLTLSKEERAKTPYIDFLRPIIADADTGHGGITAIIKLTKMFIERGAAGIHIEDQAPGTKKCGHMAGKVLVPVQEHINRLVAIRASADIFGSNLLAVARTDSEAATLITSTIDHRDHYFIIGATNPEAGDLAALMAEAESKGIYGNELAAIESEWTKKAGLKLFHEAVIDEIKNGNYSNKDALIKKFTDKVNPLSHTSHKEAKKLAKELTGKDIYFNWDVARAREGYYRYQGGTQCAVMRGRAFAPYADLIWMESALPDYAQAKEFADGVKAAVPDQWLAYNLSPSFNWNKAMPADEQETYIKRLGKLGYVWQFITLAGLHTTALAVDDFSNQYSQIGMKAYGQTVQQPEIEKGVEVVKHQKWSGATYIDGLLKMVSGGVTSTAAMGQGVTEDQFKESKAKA

**Q.** With `CC1=CC[C@H]2C(C)(C)CCC[C@]2(C)[C@H]1C[C@@H](OS(=O)(=O)O)[C@H](C)CCC/C(C)=C/Cc1cc(O)ccc1O` as the compound, how does the IC50 read?
**A.** 158 µM
